Literature values in patent US20180289729A1, “COMBINATION THERAPY FOR TREATMENT OF HUMAN NEURODEGENERATIVE DISEASES” (priority 2017, published 2018).

What was measured:
[1] = system: proliferating neural stem and progenitor cells within the hippocampal dentate gyrus; conditions: both young and "old" mice models
[2] = system: hippocampal neurogenesis; conditions: rat models

Compound | increase in the number of proliferating neural stem and progenitor cells within the hippocampal dentate gyrus [1] | effect on hippocampal neurogenesis [2]
Cc1cccc(-c2n[nH]cc2-c2ccc3ncccc3n2)n1 [2-(3-(6-methylpyricin-2-yl)-1H-pyrazol-4-yl)-1,5-naphthyridine] | two-fold increase | 
CCCCCCC(C)(C)c1cc(O)c2c(c1)OC(C)(C)[C@@H]1CC=C(CO)C[C@@H]21 [[(6aR)-trans-3-(1,1-dimethylheptyl)-6a, 7,10,10a-tetrahydro-1-hydroxy-6,6-dimethyl-6H-dibenzo [b,d]pyran-9-methanol]] |  | dramatic effect
